Measurements published in article PMC12323621, “Exploring the antimicrobial activity of pantothenamides against uropathogenic Escherichia coli” (Microbiology Spectrum, 2025).
In brackets after ≈: the same amount, converted by molar mass. Like-named read-outs stand apart in the source and are kept apart here.

Legend:
[1] = Phase I metabolic stability in mouse liver microsomes; assay type: in vitro ADME; details: for remaining at 1 h, 1 µM: mouse, liver microsomes, pH 7.4, 1 h; for stability in mouse liver microsomes: n = 3
Method: Stability studies were conducted in mouse liver microsomes, mouse liver tissue homogenate, and CD1 mouse plasma as previously described with minor modifications ([54][–][56]). Briefly, for Phase I mouse liver microsome stability, reactions were carried out with 200 mM potassium phosphate buffer, pH 7.4, with or without an NADPH-regenerating system (1.3 mM NADPH, 3.3 mM glucose 6-phosphate, 3.3 mM MgCl2, 0.4 U/mL glucose-6-phosphate dehydrogenase, and 50 µM sodium citrate). Reactions, in triplicate, were initiated by the addition of liver microsomes to the incubation mixture (compound final concentration was 1 µM; 0.2 mg/mL microsomes) and incubated at 37°C for the desired incubation time. For liver stability, the tissue homogenate was prepared by washing tissues with diluted 10-fold 0.1 M potassium phosphate buffer and homogenized using a probe sonicator over ice. To evaluate the stability of the drugs over time, each of the crude homogenates was aliquoted to 1 mL and then spiked with a final assay concentration of 10 µM of each drug, followed by incubation in an orbital shaker at 37°C for 1 h (in triplicate). For plasma stability, 1 mL of plasma was spiked with 10 µM of each drug, followed by incubation in an orbital shaker at 37°C for 1 h (in triplicate). Samples from each metabolism study were quenched with 3× volume of acetonitrile containing internal standard (losartan: 0.5 µM) at the desired incubation times. […] Samples were vortex-mixed for 30 s and centrifuged at 10,000 × g for 10 min at 4°C. Compound disappearance over time was monitored using a Dionex ultra-high-performance liquid chromatography system consisting of an analytical pump and an autosampler coupled with Q Exactive Focus orbitrap mass spectrometer (Thermo Fisher Scientific Inc., Waltham MA). […] The mobile phase used was composed of 0.1% formic acid in water and 0.1% formic acid in acetonitrile with gradient elution. The total run time for each analyte was 5 min.
The mass spectrometer was operated with a HESI ion source in positive ionization mode where compounds were identified in the full scan mode (from m/z 75.00–1125.00) and controlled by the Xcalibur software 4.0.27.13 (Thermo Scientific). Data were acquired using Xcalibur software. Drugs were identified in the full-scan mode (from m/z 75.00 to 1125.00) by comparing t = 0 samples with t = 30 or 60 min samples, and structures were proposed based on the accurate mass information. The percentage of compound remaining for pantothenamides 1, 6, and 7 was determined from the analyte/internal standard (IS) area ratios obtained at t = 30 or 60 min relative to the mean ratios obtained at t = 0 min and calculated using equation 1:
% Remaining=(Peak area of Analyte/Preak area of ISat t=30 or 60 min/MeanPeak area of Analyte/Peak area of ISat t=0 min)×100

[2] = tested on: UPEC strain CFT073; set-up: method as in PMID 37107054; details: cited from earlier work
[3] = tested on: UPEC strain CFT073; assay: Checkerboard analysis of BAP with pantothenamide in pooled human urine; assay type: cell-based, Escherichia coli; details: combination with BAP, UPEC in urine batch B
Method: As previously described ([7]), an inoculum of 10^5 CFU/mL CFT073 was prepared in pooled human urine Batch B (described above). Cells (100 µL) were added 1:1 to a 96-well plate containing varied combinations of BAP and 1 or N5-Pan analog at 2× the final concentration (100 µL). The OD600 was recorded at 37°C for 16 h with intermittent shaking. Fractional growth was calculated relative to the no drug control at 6 h. Experiments were performed in biological triplicate.
Fractional inhibitory concentration indices (FICI) were determined as previously described ([7], [8]) and calculated using equation 2:
FICI=FICA+FICB=([A]/MICA)+([B]/MICB)
MICA and MICB are the lowest [A] or [B], respectively, required to suppress 90% of the bacterial growth. FICA was calculated as [A] in the presence of B for a combination resulting in <10% growth, divided by MICA. FICB was calculated as [B] in the presence of A for a combination resulting in <10% growth, divided by MICB. Isobolograms were prepared from the checkerboard analysis by plotting FIC for BAP and 1 or 6 over the range of BAP concentrations tested in combination with 1 or 6. Points falling below the line of additivity indicate potentiation of activity. See Fig. S6 for the visual representation of the method of assembling isobolograms.

[4] = tested on: UPEC strain CFT073; set-up: method as in PMID 37107054; details: 1 combined with BAP; cited from earlier work
[5] = tested on: mammalian cells; details: cited from earlier work
[6] = tested on: serum pantetheinases; details: cited from earlier work

remaining at 1 h, 1 µM ([1]; with NADPH, 1 µM compound, 0.2 mg/mL microsomes, read-out: % remaining in mouse liver microsomes, presence of NADPH) [%]	remaining at 1 h, 1 µM ([1]; without NADPH, 1 µM compound, 0.2 mg/mL microsomes, read-out: % remaining in mouse liver microsomes, absence of NADPH) [%]	stability in mouse liver microsomes [1]	% remaining in mouse liver microsomes, presence of NADPH ([1]; 1 h, with NADPH, 1 µM compound, 0.2 mg/mL microsomes)	% remaining in mouse liver microsomes, absence of NADPH ([1]; 1 h, without NADPH, 1 µM compound, 0.2 mg/mL microsomes)	Compound	fold drop in potency in urine versus MOPS-glycerol ([2]; UPEC CFT073) [fold]	MIC in commercial pooled human urine ([2]; UPEC, commercial pooled human urine) [µM]	effect of BAP on activity (isobologram analysis) [3]	interaction with BAP against UPEC in urine [4]	toxicity to mammalian cells [5]	Fractional inhibitory concentration index (FICI) ([3]; range across experiments)	stability in the presence of serum pantetheinases [6]
90	93	good stability	–	–	CCCCCNC(=O)CCNC(=O)[C@H](O)C(C)(C)CO [compound 1, N-pentylpantothenamide, reference compound]	≥ 30	156 (≈ 45 µg/mL)	potentiates the activity	synergy	–	–	–
–	–	good stability	no degradation	no degradation	CCCCCNC(=O)CNC(=O)[C@H](O)C(C)(C)CO [compound 6, N5-α-pantothenamide]	–	–	potentiates the activity	–	non-toxic	0.5–1.25	stable
